In assay [1] the test system is GPX4^low NCI-H226 xenografts. The assay is described as follows: NCI-H226 xenograft model. The following applies: liproxstatin-1 10 mg/kg intraperitoneally daily. The format is in vivo, athymic nude mice. As to the method: All the xenograft experiments were performed in accordance with a protocol approved by the Institutional Animal Care and Use Committee and Institutional Review Board at The University of Texas MD Anderson Cancer Center. The study is compliant with all relevant ethical regulations regarding animal research. Female 4- to 6-week-old athymic nude mice (Foxn1^nu/Foxn1^nu) were purchased from the Experimental Radiation Oncology Breeding Core Facility at MD Anderson Cancer Center and housed in the Animal Care Facility at the Department of Veterinary Medicine and Surgery at MD Anderson. Cancer cell lines were suspended and counted in cold phosphate-buffered saline (PBS), and 5×10^6 HT-1080 or 1×10^7 NCI-H226 cells were injected into mice subcutaneously. When the tumor reached 50-100 mm^3, the mice were assigned randomly into different treatment groups. Brequinar or sulfasalazine was dissolved in dimethyl sulfoxide (DMSO) and diluted in PBS. Brequinar was intraperitoneally injected into mice at a dose of 30 mg/kg every three days. Sulfasalazine was intraperitoneally injected daily at a dose of 100 mg/kg. Liproxstatin-1 diluted in PBS was intraperitoneally injected daily at a dose of 10 mg/kg. […] The tumor volume was measured every 3 days until the endpoint and calculated according to the equation volume=length×width^2×½.

In another assay the test system is HT-1080 cells. As to the kind of experiment: Metabolic tracer analysis of pyrimidine synthesis (amide-15N-glutamine). The format is cell-based, human. Particulars: Lip-1 10 μM. As to the method:
Metabolomic analysis was performed as previously described (Liu, X., et al., Nat Cell Biol 22, 476-486 (2020)). Cells were seeded on 35 mm culture plates at a density sufficient to ensure approximately 70-80% confluence at the time of extraction. For metabolic tracer analysis of pyrimidine synthesis, HT-1080 cells were treated with RSL3 and/or Lip-1 for 2 hours and then were shifted to drug-free media containing amide-^15N-glutamine (this time point is defined as 0 hour). Metabolites were extracted at the indicated time points for subsequent analyses. Metabolites were extracted by rapidly aspirating the culture medium and then adding 0.6 mL of an 80% methanol: 20% water mixture at dry ice temperature. The plates were incubated on dry ice for 15 minutes before the cell material was scraped into eppendorf tubes pre-chilled on ice. The cell debris was pelleted by centrifugation at 13,000 RCF for 5 minutes at 4° C. and the supernatant was transferred to a fresh tube and stored on dry ice until analysis. […]
The complete platform consists of an Accela 1250 HPLC system, Accela Open Autosampler, MayLab Mistraswitch column oven and Exactive orbitrap mass spectrometer, controlled by the Xcalibur 3.0.63 software package. […] The data were analyzed using the MAVEN software suite57 with signal intensity determined as the Peak Area (Top). […]

Here are results for one molecule from patent publication US20240148757A1, “USE OF DIHYDROOROTATE DEHYDROGENASE (DHODH) INHIBITORS TO TARGET FERROPTOSIS IN CANCER THERAPY” (BOARD OF REGENTS, THE UNIVERSITY OF TEXAS SYSTEM, priority 2021, published 2024).

On to `Clc1cccc(CN=C2Nc3ccccc3NC23CCNCC3)c1` [liproxstatin-1], for which, in assay [1], the “restoration of brequinar-suppressed tumor growth” value is “could be restored”. Besides, the “rescue of RSL3-induced increase of 15N-UMP levels” value with HT-1080 cells is on record as “completely rescued”.
